ChEMBL document CHEMBL1201862, “PubChem BioAssay data set” (2004)
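Dose response: 5 concentrations. Exposure: 48 h. Format: 96-well plates. Endpoint: linear interpolation; highest concentration if not reached. GI50 = concentration required for 50% inhibition of growth.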 Activity calls are given as the source filed them. No stated cut-off is given here; in the data, active = GI50 up to about 1.1 µM and inactive = higher.

What was measured:
Assay in all cases: growth of human tumour cells (NCI), 48 h
MDA-MB-231 = system: MDA-MB-231
NCI/ADR-RES = system: NCI/ADR-RES
MCF7 = system: MCF7
SF-539 = system: SF-539
Malme-3M = system: Malme-3M
ACHN = system: ACHN
NCI-H226 = system: NCI-H226
MDA-N = system: MDA-N
HCC 2998 = system: HCC 2998
HOP-62 = system: HOP-62
OVCAR-5 = system: OVCAR-5
HT-29 = system: HT-29
M14 = system: M14
Hs-578T = system: Hs-578T
A498 = system: A498
COLO 205 = system: COLO 205
KM12 = system: KM12
SN12C = system: SN12C
NCI-H522 = system: NCI-H522
DU-145 = system: DU-145

Measured: GI50

c1ccc2c(c1)ccc1nc(-c3ccc4c(c3)OCO4)c3c(c12)CCC3
inactive: MDA-MB-231 67.5 µM | NCI/ADR-RES 59.2 µM | MCF7 68.1 µM | SF-539 > 100 µM | Malme-3M > 100 µM | ACHN > 100 µM | NCI-H226 > 100 µM | MDA-N > 100 µM | HCC 2998 79.4 µM | HOP-62 > 100 µM | OVCAR-5 > 100 µM | HT-29 41.1 µM | M14 > 100 µM | Hs-578T 55.8 µM | A498 > 100 µM | COLO 205 56.9 µM | KM12 34 µM | SN12C > 100 µM

O=C(Nc1nc2ccc([N+](=O)[O-])cc2s1)c1cc([N+](=O)[O-])ccc1Cl
inactive: MDA-MB-231 2.55 µM | NCI/ADR-RES 1.91 µM | SF-539 2.68 µM | Malme-3M 3.01 µM | NCI-H522 1.68 µM | DU-145 3.75 µM | ACHN 3.2 µM | NCI-H226 1.31 µM | MDA-N 1.48 µM | HOP-62 3 µM | OVCAR-5 4.26 µM | HT-29 2.48 µM | A498 2.21 µM | COLO 205 1.68 µM | KM12 3.4 µM | SN12C 1.52 µM

COc1ccc(N[C@H](C[S+]([O-])c2ccc(C)cc2)c2ccc(F)cc2)cc1 (stereo not given in full)
inactive: MDA-MB-231 40.5 µM | NCI/ADR-RES 26.9 µM | MCF7 16.6 µM | SF-539 22.3 µM | Malme-3M 31.9 µM | NCI-H522 13.2 µM | DU-145 96.6 µM | ACHN 52.6 µM | MDA-N 39.3 µM | HCC 2998 > 100 µM | HOP-62 33.7 µM | OVCAR-5 > 100 µM | HT-29 > 100 µM | M14 64.3 µM | COLO 205 > 100 µM | KM12 > 100 µM | SN12C 54.3 µM

COC(=O)NC(=O)NC(Cc1ccccc1)NC(=O)OCc1ccccc1 (stereo not given)
inactive: MDA-MB-231 18.5 µM | NCI/ADR-RES > 100 µM | MCF7 > 100 µM | SF-539 19.6 µM | Malme-3M > 100 µM | NCI-H522 28.3 µM | DU-145 > 100 µM | ACHN > 100 µM | NCI-H226 > 100 µM | MDA-N > 100 µM | HCC 2998 > 100 µM | HOP-62 47.2 µM | OVCAR-5 > 100 µM | HT-29 > 100 µM | M14 > 100 µM | A498 30.3 µM | COLO 205 > 100 µM | KM12 > 100 µM | SN12C > 100 µM

c1ccc(-c2nc3ccccc3n3nnnc23)cc1
inactive: MDA-MB-231 > 100 µM | NCI/ADR-RES > 100 µM | MCF7 > 100 µM | SF-539 > 100 µM | Malme-3M > 100 µM | DU-145 > 100 µM | ACHN > 100 µM | NCI-H226 > 100 µM | MDA-N > 100 µM | HCC 2998 > 100 µM | HOP-62 63.5 µM | OVCAR-5 > 100 µM | HT-29 > 100 µM | M14 > 100 µM | A498 > 100 µM | COLO 205 > 100 µM | KM12 > 100 µM | SN12C > 100 µM

COc1cc(Br)cc2c1O[C@H]1C(=O)CC3CC21CCN3C (stereo not given in full)
inactive: NCI/ADR-RES 67.5 µM | MCF7 34.1 µM | SF-539 > 100 µM | Malme-3M > 100 µM | ACHN 57.1 µM | MDA-N 66.2 µM | HCC 2998 34.1 µM | HOP-62 > 100 µM | OVCAR-5 > 100 µM | HT-29 42.2 µM | M14 > 100 µM | Hs-578T 44.7 µM | A498 > 100 µM | COLO 205 43.3 µM | KM12 72.3 µM

CC(=O)NC1(c2cc3ccccc3s2)CCCCCC1
inactive: MDA-MB-231 40.4 µM | NCI/ADR-RES 38.3 µM | MCF7 37.2 µM | SF-539 51.5 µM | NCI-H522 20.7 µM | DU-145 51.3 µM | ACHN 43.9 µM | NCI-H226 42.3 µM | MDA-N 48.4 µM | HCC 2998 61.2 µM | HOP-62 46.7 µM | OVCAR-5 36.7 µM | HT-29 34.3 µM | M14 42 µM | A498 43.4 µM | COLO 205 22 µM | KM12 41.8 µM | SN12C 42.3 µM

CSc1nncc(-c2cc3c(c(SC)n2)CCCC3)n1
inactive: MDA-MB-231 > 100 µM | NCI/ADR-RES > 100 µM | SF-539 > 100 µM | NCI-H522 53.7 µM | DU-145 > 100 µM | ACHN > 100 µM | NCI-H226 > 100 µM | MDA-N > 100 µM | HCC 2998 > 100 µM | HOP-62 30.5 µM | OVCAR-5 > 100 µM | HT-29 > 100 µM | M14 > 100 µM | A498 > 100 µM | COLO 205 > 100 µM | KM12 > 100 µM | SN12C > 100 µM

O=C(NN1C(=O)CSC1c1ccco1)c1ccncc1 (stereo not given)
inactive: MDA-MB-231 > 100 µM | NCI/ADR-RES > 100 µM | MCF7 > 100 µM | SF-539 > 100 µM | Malme-3M > 100 µM | NCI-H522 > 100 µM | DU-145 > 100 µM | ACHN > 100 µM | NCI-H226 > 100 µM | MDA-N > 100 µM | HCC 2998 > 100 µM | HOP-62 > 100 µM | OVCAR-5 > 100 µM | HT-29 > 100 µM | M14 > 100 µM | A498 > 100 µM | COLO 205 > 100 µM | KM12 > 100 µM | SN12C > 100 µM

O=c1[nH]nc(Cc2ccccc2)n1-n1cnnc1
inactive: MDA-MB-231 > 100 µM | NCI/ADR-RES > 100 µM | MCF7 > 100 µM | SF-539 > 100 µM | NCI-H522 > 100 µM | DU-145 > 100 µM | ACHN > 100 µM | MDA-N > 100 µM | HCC 2998 > 100 µM | HOP-62 > 100 µM | OVCAR-5 > 100 µM | HT-29 > 100 µM | M14 > 100 µM | COLO 205 > 100 µM | KM12 > 100 µM | SN12C > 100 µM

CC(Oc1ccc(Oc2cnc3ccc(Cl)cc3n2)cc1)C(=O)O (stereo not given)
inactive: MDA-MB-231 > 89.5 µM | NCI/ADR-RES > 95.3 µM | MCF7 26.6 µM | SF-539 > 65.2 µM | Malme-3M > 45 µM | NCI-H522 29.5 µM | ACHN 60 µM | MDA-N > 86.7 µM | HCC 2998 > 87.9 µM | HOP-62 > 74.5 µM | HT-29 > 95.3 µM | M14 > 91.6 µM | Hs-578T > 62.2 µM | A498 > 62.1 µM | COLO 205 55.7 µM | KM12 > 84.5 µM | SN12C > 100 µM
